Assay results taken from patent publication US20160318933A1, “FUSED PYRAZOLE DERIVATIVE” (SUMITOMO DAINIPPON PHARMA CO., LTD., priority 2013, published 2016).

Experiments:
[1] = Brain penetration study in rat (Kp,uu,brain); format: in vivo; conditions: brain and plasma (unbound); 7-week-old SD-type or WKY-type rat; subcutaneous or oral administration; plasma and brain collected 0.5, 1 or 2 hours after administration; LC-MS; read-out: Kp,uu,brain (Unbound brain-to-plasma drug concentration ratio)
Procedure: In this study, the brain penetration of the present compounds can be evaluated. Specifically, a 7-week-old SD-type or WKY-type rat received the subcutaneous administration of a solution of the present compound in saline or the oral administration of a suspension of the present compound in methylcellulose. Plasma and brain were collected from the treated rat 0.5 hour, 1 hour or 2 hours after the administration, and then the concentrations of the present compound in the plasma and the brain were measured by a LC-MS method.
The protein binding ratios of the present compound to the plasma and the brain were measured by an equilibrium dialysis method.
The concentrations of the present compound in the plasma and the brain as well as the plasma and brain protein binding ratios are applied to the following formula, and thus Kp,uu,brain (Unbound brain-to-plasma drug concentration ratio) can be calculated.
Kp,uu,brain=(the concentration of the present compound in the brain×(100−the brain protein binding ratio (%))/100)/(the concentration of the present compound in the plasma×(100−the plasma protein binding ratio (%))/100)

[2] = molecular target: T1, human brain-derived dopamine D4 receptor (Homo sapiens, UniProt P21917); assay: Agonistic activity in G protein dependent pathway of dopamine D4 receptor (aequorin intracellular calcium luminescence, FDSS); format: cell-based; conditions: for EC50: concentration required to achieve a 50% response of Emax, CHO-K1 or HEK293 cells transfected with D4 receptor; for Emax: read-out: Maximal activity on D4 receptor (%)
T1 construct: expressed in transfected cells; host or cells: CHO (CHO-K1) or HEK293 cells
T1 sequence (P21917 1-419): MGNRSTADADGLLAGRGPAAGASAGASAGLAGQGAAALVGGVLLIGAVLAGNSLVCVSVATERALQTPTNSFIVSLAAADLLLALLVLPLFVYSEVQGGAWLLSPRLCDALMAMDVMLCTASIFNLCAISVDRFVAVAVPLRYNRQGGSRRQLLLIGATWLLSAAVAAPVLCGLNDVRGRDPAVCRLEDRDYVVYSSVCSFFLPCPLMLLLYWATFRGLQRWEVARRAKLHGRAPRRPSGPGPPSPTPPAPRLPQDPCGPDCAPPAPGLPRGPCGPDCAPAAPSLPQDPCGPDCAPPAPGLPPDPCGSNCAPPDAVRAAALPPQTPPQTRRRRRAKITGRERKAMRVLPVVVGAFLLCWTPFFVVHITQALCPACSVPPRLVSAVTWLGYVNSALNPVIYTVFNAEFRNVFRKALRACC
In short: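 CHO-K1 or HEK293 cells transfected with D4 receptor, cultured 24 h at 37 °C, preloaded with coelenterazine; aequorin luminescence recorded on FDSS after compound addition. Emax taken as maximal activity; EC50 as concentration giving 50% of Emax.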

| Compound | Kp uu [1] | EC50 [2] | Emax [2] |
| --- | --- | --- | --- |
| Cc1ncc(CN2CCn3nc(-c4ccccn4)cc3C2)c(N)n1 [Example 22, 2-Methyl-5-{[2-(pyridin-2-yl)-6,7-dihydropyrazolo[1,5-a]pyrazin-5(4H)-yl]methyl}pyrimidine-4-amine] | 0.2 | 109 nM | 62% |
| Cc1cccnc1-c1cc2n(n1)CCN(Cc1ccc3c(n1)CCC3)C2 [Example 113] | 0.77 | 13 nM | 104% |
| Cc1ncc(CN2CCn3nc(-c4ncccc4C)c(C)c3C2)cn1 [Example 116] | 1.42 | 131 nM | 67% |
| Cc1c(-c2ncccc2F)nn2c1CN(Cc1ccc(C(F)(F)F)cn1)CC2 [Example 128] | 0.6 | 36 nM | 86% |
| Fc1cccnc1-c1cc2n(n1)CCN(Cc1ccc3c(n1)CCC3)C2 [Example 129] | 0.58 | 14 nM | 91% |
| Cc1cccnc1-c1cc2n(n1)CCN(Cc1nc3ccccc3[nH]1)C2 [Example 144] | 0.79 | 41 nM | 49% |
| CC(C)c1ncc(CN2CCn3nc(-c4ncccc4F)cc3C2)cn1 [Example 204] |  | 44 nM | 50% |
